Experimental data from US10077236B2, “Azacyclic constrained analogs of FTY720” (The Regents of the University of California, priority 2013, dated 2018).

Columns and labels:
[1] = test system: BMp190 cells (murine bone marrow transduced with BCR-Abl p190); assay: Cell viability assay, BCR-Abl p190-expressing murine bone marrow (BM-p190); format: cell-based
Excerpt: (§1) Leukemia cell assays: Effects of chemical changes on ability to kill cells as observed in cell viability assays using the BCR-ABL positive human acute lymphoblastic leukemia (ALL) cell line, Sup-B15 are described. Assays using the Sup-B15 cell line were designed to determine efficacy of azacyclic constrained small molecule analogs of FTY720 in killing leukemia cells. Analogs were generated using the synthesis methods mentioned above. Sup-B15 cells were maintained at 2-3 million/mL in RPMI 1640 (by Mediatech™) supplemented with 10% fetal calf serum (by Sigma-Aldrich™), 10 mM Hepes (by Mediatech™), 55 μM β-mercaptoethanol (by Sigma-Aldrich™), 2 mM L-glutamine (by Mediatech™), and antibiotics. BV173, Nalm-6, and Blin-1 were maintained at 1-2 million/mL and CCRF-CEM at less than 500,000/mL in the same medium. BMp190 cells were created by transducing murine bone marrow cells with pMIC-p190 which expresses the p190 isoform of BCR-Abl and human CD4 from an IRES; these cells were kept at 1-2 million/mL in RPMI supplemented as above.
(§2) Flow cytometry: Much of the biological activity presented is shown through flow cytometry data. […] Here, IC50 flow cytometry assays were used. In them, viability was determined at 72 hours by vital dye exclusion [propium iodide or DAPI (4′,6-diamindino-2-phenylindole)]. To measure nutrient receptor expression following exposure to FTY720 and azacyclic constrained analogs of FTY720, surface 4F2hc expression was measured after 3 hours of drug treatment by staining 150,000 cells with phycoerythrin-conjugated mouse anti-human CD98 (by BD Biosciences™). Analysis was restricted to viable cells.
(§3) All samples for the disclosed sets of data were analyzed on a BD LSR II flow cytometer and data analyzed with FlowJo™ software (by Treestar™). IC50's were calculated and statistical tests were performed using GraphPad Prism™.

[2] = test system: sphingosine-1-phosphate receptors; assay: S1P receptor activation in CHO cells expressing the receptors; format: cell-based; conditions: added to CHO cells expressing the receptors
Protocol: When the pure phosphates are added to these CHO cells, multiple S1P receptors are activated when the phosphates are present at 1-10 uM. There is no enantiomer-selectivity in the activation of S1P receptors.

sphingosine kinase 2 = target: T1, sphingosine kinase 2 (Mus musculus, UniProt Q9JIA7); assay: Phosphorylation by sphingosine kinase 2 in cells; format: cell-based
T1 construct: endogenous in cells
T1 sequence (Q9JIA7 1-617): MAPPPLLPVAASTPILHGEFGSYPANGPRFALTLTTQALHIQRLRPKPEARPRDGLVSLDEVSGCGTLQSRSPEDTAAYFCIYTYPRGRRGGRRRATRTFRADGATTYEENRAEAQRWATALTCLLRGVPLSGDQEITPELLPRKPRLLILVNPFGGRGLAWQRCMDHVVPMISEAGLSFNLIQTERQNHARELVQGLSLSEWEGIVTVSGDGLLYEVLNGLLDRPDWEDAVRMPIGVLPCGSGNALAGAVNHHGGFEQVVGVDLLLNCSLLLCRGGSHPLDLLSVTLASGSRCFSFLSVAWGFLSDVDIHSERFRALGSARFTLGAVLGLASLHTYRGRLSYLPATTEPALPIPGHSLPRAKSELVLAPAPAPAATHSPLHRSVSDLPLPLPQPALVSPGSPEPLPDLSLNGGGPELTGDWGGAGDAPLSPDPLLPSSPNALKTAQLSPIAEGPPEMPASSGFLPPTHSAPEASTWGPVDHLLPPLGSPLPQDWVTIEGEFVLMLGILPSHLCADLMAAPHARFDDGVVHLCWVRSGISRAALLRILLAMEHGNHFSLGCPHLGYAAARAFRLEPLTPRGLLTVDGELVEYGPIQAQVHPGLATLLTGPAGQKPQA
Protocol: The importance of phosphorylation in the activity of compound 6 was then examined. In this study MEF knockout lines that show the same differential sensitivity to compound 6 relative to its enantiomers as leukemia cells were used (FIG. 10h). […] A phosphate and a non-phosphorylatable analog of compound 6 were then tested.

[3] = test system: CCRF-CEM Ph- ALL cell line; assay: Cell viability assay, CCRF-CEM; format: cell-based, human; conditions: 72 h, vital dye exclusion and flow cytometry; read-out: Mean IC50 (+/- SEM) in cell viability assay, CCRF-CEM Ph- ALL
Excerpt: as §1, §2, §3

[4] = test system: BCR-Abl+ leukemias compared to other cell types; assay: Ratio of IC50 of compound 6 (177) and its enantiomer compound 5 (39) across cell types; format: cell-based
Excerpt: Another difference between compound 6 and FTY720 or the enantiomer of compound 6, is that compound 6 has a specific and very high activity to BCR-Abl+ leukemias compared to other cell types. This trend is shown in FIG. 10d by calculating the ratio of 1050 for compound 6 (also called 177) and its enantiomer compound 5 (also called 39). If the drugs are similarly effective a ratio near 1 would be expected, and if compound 6 works better (has a lower 1050), a ratio greater than one as with SupB15s would be expected. […] Finally, it is seen that the Ph+ALL primary patient sample has a ratio greater than 1.

human colon cancer cells = assay: Combination with trametinib in human colon cancer cells; format: cell-based
BV173 Ph+ ALL cell line = assay: Cell viability assay, BV173; format: cell-based, human; conditions: 72 h, vital dye exclusion and flow cytometry; read-out: Mean IC50 (+/- SEM) in cell viability assay, BV173 Ph+ ALL
Excerpt: as §1, §2, §3

BCR-Abl- LAX7R cells = assay: Combination with trametinib in BCR-Abl- LAX7R patient leukemia cells; format: cell-based, human; conditions: some BCR-Abl negative patient leukemia samples
Excerpt: FIGS. 10n and 10o provide data results from a study of the effectiveness of treating BCR-Abl+ SFO2 cells (10n), and also in BCR-Abl− LAX7R cells (10o), which is a late-stage leukemia resistant to chemotherapy.

Compound: CCCCCCCCc1ccc(CO[C@@H]2CN[C@@H](CO)C2)cc1.Cl [Compound 6]
- IC50 ([1]; 72 h, vital dye exclusion and flow cytometry, read-out: Mean IC50 (+/- SEM) in cell viability assay, BM-p190): 500 ± 100 nM
- more active than compound 5 ([1]; murine bone marrow transformed by BCR-ABL p190): 10 fold
- activation of sphingosine-1-phosphate receptors [2]: do not activate sphingosine-1-phosphate receptors
- phosphorylation by sphingosine kinase 2 in cells (sphingosine kinase 2): more efficient
- IC50 [3]: 8.2 ± 0.7 µM
- ratio of IC50, compound 6 versus its enantiomer compound 5 ([4]; 2 Ph+ ALL lines and BM transduced with BCR-ABL p190 fusion): greater than 1
- ratio of IC50, compound 6 versus its enantiomer compound 5 ([4]; 3 Ph- ALL lines): ~1
- sensitivity of non-sensitive line after p190 transduction ([4]; CCRF transduced with p190): becomes sensitized to compound 6
- ratio of IC50, compound 6 versus its enantiomer compound 5 ([4]; Ph+ALL primary patient sample): greater than 1
- cell killing, combination of trametinib and compound 6 (human colon cancer cells): can kill human colon cancer cells
- cell killing, single agent (human colon cancer cells): do not die
- IC50 (BV173 Ph+ ALL cell line): 3.8 ± 0.4 µM
- sensitivity, combination with trametinib (BCR-Abl- LAX7R cells): sensitive to this drug combination
- sensitivity, single agent (BCR-Abl- LAX7R cells): not sensitive to compound 6 as a single agent
